Publication PMC11277489, “Novel Piperazine Derivatives of Vindoline as Anticancer Agents” (International Journal of Molecular Sciences, 2024)

Columns and labels:
[1] = tested on: HL-60(TB); assay: NCI60 five-dose screen, Leukemia; format: cell-based; conditions: Homo sapiens; HL-60(TB), Leukemia; five-dose screen; read-out: GI50
[2] = tested on: K-562; assay: NCI60 five-dose screen, Leukemia; format: cell-based; conditions: Homo sapiens, K562; K-562, Leukemia; five-dose screen; read-out: GI50
[3] = tested on: EKVX; assay: NCI60 five-dose screen, Non-small Cell Lung Cancer; format: cell-based; conditions: Homo sapiens, Non-small Cell Lung Cancer, five-dose screen, read-out: GI50
[4] = tested on: HOP-62; assay: NCI60 five-dose screen, Non-small Cell Lung Cancer; format: cell-based; conditions: Homo sapiens; HOP-62, Non-small Cell Lung Cancer; five-dose screen; read-out: GI50
[5] = tested on: HOP-92; assay: NCI60 five-dose screen, Non-small Cell Lung Cancer; format: cell-based; conditions: Homo sapiens; HOP-92, Non-small Cell Lung Cancer; five-dose screen; read-out: GI50
[6] = tested on: NCI-H460; assay: NCI60 five-dose screen, Non-small Cell Lung Cancer; format: cell-based; conditions: Homo sapiens; NCI-H460, Non-small Cell Lung Cancer; five-dose screen; read-out: GI50
[7] = tested on: HCT-116; assay: NCI60 five-dose screen, Colon Cancer; format: cell-based; conditions: Homo sapiens; HCT-116, Colon Cancer; five-dose screen; read-out: GI50
[8] = tested on: HT29; assay: NCI60 five-dose screen, Colon Cancer; format: cell-based; conditions: Homo sapiens, HT-29; HT29, Colon Cancer; five-dose screen; read-out: GI50
[9] = tested on: SF-268; assay: NCI60 five-dose screen, CNS Cancer; format: cell-based; conditions: Homo sapiens; SF-268, CNS Cancer; five-dose screen; read-out: GI50
[10] = tested on: SF-539; assay: NCI60 five-dose screen, CNS Cancer; format: cell-based; conditions: Homo sapiens; SF-539, CNS Cancer; five-dose screen; read-out: GI50
[11] = tested on: SNB-19; assay: NCI60 five-dose screen, CNS Cancer; format: cell-based; conditions: Homo sapiens; SNB-19, CNS Cancer; five-dose screen; read-out: GI50
[12] = tested on: LOX IMVI; assay: NCI60 five-dose screen, Melanoma; format: cell-based; conditions: Homo sapiens, Melanoma, five-dose screen, read-out: GI50
[13] = tested on: MDA-MB-435; assay: NCI60 five-dose screen, Melanoma; format: cell-based; conditions: Homo sapiens; MDA-MB-435, Melanoma; five-dose screen; read-out: GI50
[14] = tested on: SK-MEL-5; assay: NCI60 five-dose screen, Melanoma; format: cell-based; conditions: Homo sapiens; SK-MEL-5, Melanoma; five-dose screen; read-out: GI50
[15] = tested on: UACC-62; assay: NCI60 five-dose screen, Melanoma; format: cell-based; conditions: Homo sapiens; UACC-62, Melanoma; five-dose screen; read-out: GI50
[16] = tested on: IGROV1; assay: NCI60 five-dose screen, Ovarian Cancer; format: cell-based; conditions: Homo sapiens, IGROV-1; IGROV1, Ovarian Cancer; five-dose screen; read-out: GI50
[17] = tested on: OVCAR-4; assay: NCI60 five-dose screen, Ovarian Cancer; format: cell-based; conditions: Homo sapiens; OVCAR-4, Ovarian Cancer; five-dose screen; read-out: GI50
[18] = tested on: OVCAR-5; assay: NCI60 five-dose screen, Ovarian Cancer; format: cell-based; conditions: Homo sapiens; OVCAR-5, Ovarian Cancer; five-dose screen; read-out: GI50
[19] = tested on: NCI/ADR-RES; assay: NCI60 five-dose screen, Ovarian Cancer; format: cell-based; conditions: Homo sapiens, Ovarian Cancer, five-dose screen, read-out: GI50
[20] = tested on: ACHN; assay: NCI60 five-dose screen, Renal Cancer; format: cell-based; conditions: Homo sapiens, Renal Cancer, five-dose screen, read-out: GI50
[21] = tested on: CAKI-1; assay: NCI60 five-dose screen, Renal Cancer; format: cell-based; conditions: Homo sapiens; CAKI-1, Renal Cancer; five-dose screen; read-out: GI50
[22] = tested on: TK-10; assay: NCI60 five-dose screen, Renal Cancer; format: cell-based; conditions: Homo sapiens; TK-10, Renal Cancer; five-dose screen; read-out: GI50
[23] = tested on: DU-145; assay: NCI60 five-dose screen, Prostate Cancer; format: cell-based; conditions: Homo sapiens; DU-145, Prostate Cancer; five-dose screen; read-out: GI50
[24] = tested on: MDA-MB231ATCC; assay: NCI60 five-dose screen, Breast Cancer; format: cell-based; conditions: Homo sapiens, MDA-MB-231; MDA-MB231ATCC, Breast Cancer; five-dose screen; read-out: GI50
[25] = tested on: HS 578T; assay: NCI60 five-dose screen, Breast Cancer; format: cell-based; conditions: Homo sapiens; HS 578T, Breast Cancer; five-dose screen; read-out: GI50
[26] = tested on: T-47D; assay: NCI60 five-dose screen, Breast Cancer; format: cell-based; conditions: Homo sapiens, T47D; T-47D, Breast Cancer; five-dose screen; read-out: GI50
[27] = tested on: SR; assay: NCI60 one-dose screen (10 μM), Leukemia; format: cell-based; conditions: Homo sapiens, 10 μM, Leukemia, read-out: Growth percent rate
[28] = tested on: NCI-H226; assay: NCI60 one-dose screen (10 μM), Non-small Cell Lung Cancer; format: cell-based; conditions: Homo sapiens; 10 μM; NCI-H226, Non-small Cell Lung Cancer; read-out: Growth percent rate
[29] = tested on: NCI-H460; assay: as above; format: cell-based; conditions: Homo sapiens; 10 μM; NCI-H460, Non-small Cell Lung Cancer; read-out: Growth percent rate
[30] = tested on: SNB-75; assay: NCI60 one-dose screen (10 μM), CNS Cancer; format: cell-based, human; conditions: Homo sapiens; 10 μM; SNB-75, CNS Cancer; read-out: Growth percent rate
[31] = tested on: U251; assay: NCI60 one-dose screen (10 μM), CNS Cancer; format: cell-based; conditions: Homo sapiens, U-251; 10 μM; U251, CNS Cancer; read-out: Growth percent rate
[32] = tested on: UACC-62; assay: NCI60 one-dose screen (10 μM), Melanoma; format: cell-based; conditions: Homo sapiens; 10 μM; UACC-62, Melanoma; read-out: Growth percent rate
[33] = tested on: OVCAR-5; assay: NCI60 one-dose screen (10 μM), Ovarian Cancer; format: cell-based; conditions: Homo sapiens; 10 μM; OVCAR-5, Ovarian Cancer; read-out: Growth percent rate
[34] = tested on: NCI/ADR-RES; assay: NCI60 one-dose screen (10 μM), Ovarian Cancer; format: cell-based; conditions: Homo sapiens, 10 μM, Ovarian Cancer, read-out: Growth percent rate
[35] = tested on: SK-OV-3; assay: NCI60 one-dose screen (10 μM), Ovarian Cancer; format: cell-based; conditions: Homo sapiens; 10 μM; SK-OV-3, Ovarian Cancer; read-out: Growth percent rate
[36] = tested on: A498; assay: NCI60 one-dose screen (10 μM), Renal Cancer; format: cell-based; conditions: Homo sapiens; 10 μM; A498, Renal Cancer; read-out: Growth percent rate
[37] = tested on: UO-31; assay: NCI60 one-dose screen (10 μM), Renal Cancer; format: cell-based; conditions: Homo sapiens; 10 μM; UO-31, Renal Cancer; read-out: Growth percent rate
[38] = tested on: DU-145; assay: NCI60 one-dose screen (10 μM), Prostate Cancer; format: cell-based; conditions: Homo sapiens; 10 μM; DU-145, Prostate Cancer; read-out: Growth percent rate
[39] = tested on: MDA-MB-231/ATCC; assay: NCI60 one-dose screen (10 μM), Breast Cancer; format: cell-based, human; conditions: Homo sapiens; 10 μM; MDA-MB-231/ATCC, Breast Cancer; read-out: Growth percent rate
[40] = tested on: BT-549; assay: NCI60 one-dose screen (10 μM), Breast Cancer; format: cell-based; conditions: Homo sapiens; 10 μM; BT-549, Breast Cancer; read-out: Growth percent rate
[41] = tested on: T-47D; assay: NCI60 one-dose screen (10 μM), Breast Cancer; format: cell-based; conditions: Homo sapiens, T47D; 10 μM; T-47D, Breast Cancer; read-out: Growth percent rate
[42] = tested on: MDA-MB-468; assay: NCI60 one-dose screen (10 μM), Breast Cancer; format: cell-based; conditions: Homo sapiens; 10 μM; MDA-MB-468, Breast Cancer; read-out: Growth percent rate
[43] = tested on: 60 human tumor cell lines (NCI60); assay: NCI60 one-dose screen (10 μM), whole panel; format: cell-based; conditions: for activity at 10 µM: mean over 60 human cancer cell lines, read-out: Growth percent rate, Mean
[44] = tested on: HOP-92; assay: NCI60 one-dose screen (10 μM), Non-small Cell Lung Cancer; format: cell-based; conditions: Homo sapiens; 10 μM; HOP-92, Non-small Cell Lung Cancer; read-out: Growth percent rate
[45] = tested on: PC-3; assay: NCI60 one-dose screen (10 μM), Prostate Cancer; format: cell-based; conditions: Homo sapiens; 10 μM; PC-3, Prostate Cancer; read-out: Growth percent rate

CCC12C=CCN3CCC4(c5cc(NC(=O)CN6CCN(C(c7ccc(F)cc7)c7ccc(F)cc7)CC6)c(OC)cc5N(C)C4C(O)(C(=O)OC)C1OC(C)=O)C32 (centres unmarked) [Compound 20] was tested, and the GI50 [1] was 2190 nM, the GI50 [2] was 3160 nM and the GI50 [3] was 4070 nM. The GI50 [4] was 89100 nM, the GI50 [5] was 5010 nM and the GI50 [6] was 3160 nM. It also gave a GI50 [7] of 3090 nM, a GI50 [8] of 2880 nM and a GI50 [9] of 5130 nM. It also gave a GI50 [10] of 4070 nM, a GI50 [11] of 5890 nM and a GI50 [12] of 3240 nM. For the same molecule, the GI50 [13] was 3890 nM, the GI50 [14] was 2340 nM and the GI50 [15] was 8130 nM. For the same molecule, the GI50 [16] was 7940 nM, the GI50 [17] was 3310 nM and the GI50 [18] was 3550 nM. For the same molecule, the GI50 [19] was 4470 nM, the GI50 [20] was 4900 nM and the GI50 [21] was 3160 nM. It also gave a GI50 [22] of 7590 nM, a GI50 [23] of 6310 nM and a GI50 [24] of 9120 nM. It also gave a GI50 [25] of 5890 nM, a GI50 [26] of 3550 nM and an activity at 10 µM [27] of 0.34%. It also gave an activity at 10 µM [28] of 24.1%, an activity at 10 µM [29] of 17.3% and an activity at 10 µM [30] of -60.5%. It also gave an activity at 10 µM [31] of 31.7%, an activity at 10 µM [32] of 28.5% and an activity at 10 µM [33] of 66.9%. The activity at 10 µM [34] was 20.9%, the activity at 10 µM [35] was 45.4% and the activity at 10 µM [36] was 35.6%. The activity at 10 µM [37] was 27.2%, the activity at 10 µM [38] was 37.1% and the activity at 10 µM [39] was -4.47%. The activity at 10 µM [40] was -37.5%, the activity at 10 µM [41] was 10.2% and the activity at 10 µM [42] was 10.9%. The “antiproliferative effect (in words)” value ([43]; 10 μM one-dose, NCI60) was “moderate antiproliferative activity on some colon, CNS, and melanoma cell lines” and the activity at 10 µM [43] was 12.2%.

CC[C@]12C=CCN3CC[C@@]4(c5ccc(OC)cc5N(C)[C@H]4[C@@](O)(C(=O)OC)[C@@H]1OC(=O)CCCN1CCN(Cc4ccc(C(F)(F)F)cc4)CC1)[C@@H]32 [Compound 23] was tested, and the GI50 [1] was 1740 nM, the GI50 [2] was 1700 nM and the GI50 [3] was 1700 nM. The GI50 [4] was 1740 nM, the GI50 [5] was 1510 nM and the GI50 [6] was 1550 nM. The GI50 [7] was 1700 nM, the GI50 [8] was 1660 nM and the GI50 [9] was 1350 nM. For the same molecule, the GI50 [10] was 1580 nM, the GI50 [11] was 1580 nM and the GI50 [12] was 1780 nM. The GI50 [13] was 1480 nM, the GI50 [14] was 1350 nM and the GI50 [15] was 1660 nM. The GI50 [16] was 1780 nM, the GI50 [17] was 2040 nM and the GI50 [18] was 1620 nM. It also gave a GI50 [19] of 1580 nM, a GI50 [20] of 1780 nM and a GI50 [21] of 1480 nM. For the same molecule, the GI50 [22] was 1660 nM, the GI50 [23] was 1580 nM and the GI50 [24] was 1740 nM. It also gave a GI50 [25] of 1510 nM, a GI50 [26] of 1740 nM and an activity at 10 µM [27] of -55.2%. For the same molecule, the activity at 10 µM [44] was -70.7%, the activity at 10 µM [28] was -32.3% and the activity at 10 µM [29] was -84.7%. For the same molecule, the activity at 10 µM [30] was -68.8%, the activity at 10 µM [31] was -78.1% and the activity at 10 µM [32] was -91.5%. The activity at 10 µM [33] was -86%, the activity at 10 µM [35] was -44% and the activity at 10 µM [36] was -93.9%. It also gave an activity at 10 µM [37] of -69.5%, an activity at 10 µM [45] of -72% and an activity at 10 µM [38] of -64.9%. For the same molecule, the activity at 10 µM [39] was -94.4%, the activity at 10 µM [40] was -92.4% and the activity at 10 µM [41] was -20%. For the same molecule, the activity at 10 µM [42] was -58.2%, the growth rate ([43]; 10 μM one-dose, on almost all tested cancer types and cell lines, negative = lethality) was less than −60% and the activity at 10 µM [43] was -71.8%.
